“And” between values parts separate entries of the source, which are not always exact repeats. Identical values can stand only once.
Key:
Type in all cases: functional, Homo sapiens
[1] = test system: U2OS; test: (§1) Here: values are normalized to the negative (DMSO; defined as 0% autophagy induction) and positive (250nM Torin1; mTOR inhibitor; defined as maximal inducer of autophagy = 100%) control compounds and represented as % of autophagy induction. […] The impact of autophagy induction on cells is complex and depends on the affected target. As such, the magnitude of a phenotype may not be equally mirrored in the %-value of autophagy induction and vice versa. The dynamics of the induction may indicate the mode of activation: e.g. activation via phosphorylation or a signaling cascade may occur fast, while activation via transcription factors may take considerably longer. […] Of note, treatment concentrations may be sub-optimal for specific compounds, leading to false negative annotations.; settings: Culturing Media DMEM, 1 % Penicillin/Streptomycin, 10% Fetal bovin serum Add-On: No, Screening Media Control DMEM, Screening Media Samples DMEM
[2] = test system: TERT-RPE1; test: as §1; settings: Culturing Media DMEM/F12 (1:1), 1 % Penicillin/Streptomycin, 10% Fetal bovin serum Add-On: No, Screening Media Control DMEM/F12 (1:1), Screening Media Samples DMEM/F12 (1:1)
[3] = test system: U2OS; test: as §1; settings: Culturing Media DMEM, 1 % Penicillin/Streptomycin, 10% Fetal bovin serum Add-On: No, Screening Media Control DMEM, Screening Media Samples DMEM; remark: listed apart in the source
[4] = Compound Concentration 0.5 uM, Timepoint 12 hours
[5] = Compound Concentration 0.5 uM, Timepoint 24 hours
[6] = Compound Concentration 0.5 uM, Timepoint 36 hours
[7] = Compound Concentration 0.5 uM, Timepoint 60 hours
[8] = Compound Concentration 2 uM, Timepoint 12 hours
[9] = Compound Concentration 2 uM, Timepoint 24 hours
[10] = Compound Concentration 2 uM, Timepoint 36 hours
[11] = Compound Concentration 2 uM, Timepoint 60 hours
[12] = Compound Concentration 10 uM, Timepoint 12 hours
[13] = Compound Concentration 10 uM, Timepoint 24 hours
[14] = Compound Concentration 10 uM, Timepoint 36 hours
[15] = Compound Concentration 10 uM, Timepoint 60 hours
[16] = Compound Concentration 0.5 uM, Timepoint 12 hours, 12 h, 0.5 µM
[17] = Compound Concentration 0.5 uM, Timepoint 24 hours, 24 h, 0.5 µM
[18] = Compound Concentration 0.5 uM, Timepoint 36 hours, 36 h, 0.5 µM
[19] = Compound Concentration 0.5 uM, Timepoint 60 hours, 60 h, 0.5 µM
[20] = Compound Concentration 2 uM, Timepoint 12 hours, 12 h, 2 µM
[21] = Compound Concentration 2 uM, Timepoint 24 hours, 24 h, 2 µM
[22] = Compound Concentration 2 uM, Timepoint 36 hours, 36 h, 2 µM
[23] = Compound Concentration 2 uM, Timepoint 60 hours, 60 h, 2 µM
[24] = Compound Concentration 10 uM, Timepoint 12 hours, 12 h, 10 µM
[25] = Compound Concentration 10 uM, Timepoint 24 hours, 24 h, 10 µM
[26] = Compound Concentration 10 uM, Timepoint 36 hours, 36 h, 10 µM
[27] = Compound Concentration 10 uM, Timepoint 60 hours, 60 h, 10 µM

Row | SMILES | autophagy induction [1, 4] [%] | autophagy induction [1, 5] [%] | autophagy induction [1, 6] [%] | autophagy induction [1, 7] [%] | autophagy induction [1, 8] [%] | autophagy induction [1, 9] [%] | autophagy induction [1, 10] [%] | autophagy induction [1, 11] [%] | autophagy induction [1, 12] [%] | autophagy induction [1, 13] [%] | autophagy induction [1, 14] [%] | autophagy induction [1, 15] [%] | autophagy induction [2, 16] | autophagy induction [2, 17] | autophagy induction [2, 18] | autophagy induction [2, 19] | autophagy induction [2, 20] | autophagy induction [2, 21] | autophagy induction [2, 22] | autophagy induction [2, 24] | further results
1 | Cl.Clc1cccc(COc2cncc(N3CCNCC3)n2)c1 | -8.837 | -13.8803 | -7.736 | -11.4823 | 2.897 | 5.801 | -1.494 | -5.088 | 27.4058 | 16.7462 | 7.428 | 3.616 | -4.107% and -8.741% | -3.275% and -10.2873% | -5.346% and -10.5791% | -7.219% and -10.0498% | 0.7021% and -1.765% | 0.6926% and -5.584% | 0.3671% and -11.5088% | 10.122% and -0.2214% | autophagy induction [2, 23]: -2.572% and -13.6901%; autophagy induction [2, 25]: 9.832% and 0.1054%; autophagy induction [2, 26]: 9.982% and -0.986%; autophagy induction [2, 27]: 11.761% and 2.73%; autophagy induction [3, 4]: 7.085%; autophagy induction [3, 5]: -1.5773%; autophagy induction [3, 6]: -58.983%; autophagy induction [3, 7]: -0.334%; autophagy induction [3, 8]: 2.459%; autophagy induction [3, 9]: 2.019%; autophagy induction [3, 10]: -56.8827%; autophagy induction [3, 11]: 0.5358%; autophagy induction [3, 12]: -3.089%; autophagy induction [3, 13]: 5.923%; autophagy induction [3, 14]: -56.0685%; autophagy induction [3, 15]: -1.858%
2 | C[C@@H](NCCc1ccc(O)cc1)[C@@H](O)c1ccc(O)cc1.Cl (relative stereo) | 14.7038 | 0.5598 | 0.6043 | -0.5871 | 18.1678 | -0.878 | -8.358 | -12.0518 | -0.9523 | -16.8429 | -21.0427 | -26.9578 | 5.631% and 0.2084% | 6.073% and -4.011% | 3.7656% and -2.603% | -3.104% and -1.391% | 5.905% and 3.931% | 4.872% and 1.792% | 4.017% and -0.1457% | -0.5838% and 12.3967% | autophagy induction [2, 23]: -2.448% and 5.167%; autophagy induction [2, 25]: -3.853% and 16.5093%; autophagy induction [3, 4]: -6.804%; autophagy induction [3, 5]: -1.218%; autophagy induction [3, 6]: -57.9641%; autophagy induction [3, 7]: 0.9422%; autophagy induction [3, 8]: -7.529%; autophagy induction [3, 9]: -0.8348%; autophagy induction [3, 10]: -57.3104%; autophagy induction [3, 11]: -0.1418%; autophagy induction [3, 12]: -2.903%; autophagy induction [3, 13]: -0.1533%; autophagy induction [3, 14]: -57.4385%; autophagy induction [3, 15]: 1.624%
3 | CN1CCCC(n2nc(Cc3ccc(Cl)cc3)c3ccccc3c2=O)CC1.Cl (stereo not given) [AZELASTINE HYDROCHLORIDE] | 28.6217 | 20.8368 | 11.7893 | 4.08 | -10.9736 | -5.743 | -1.742 | -7.358 | 1.941 | 10.8687 | 9.578 | 17.8748 | -4.87% and -1.0131% | -4.869% and -0.0662% | -3.53% and 2.514% | -2.083% and 5.845% | 2.2259% and 11.1438% | 1.534% and 9.267% | 3.816% and 8.147% | 7.066% and 3.619% | autophagy induction [2, 25]: 11.8407% and 4.087%; autophagy induction [2, 26]: 14.8577% and 6.608%; autophagy induction [2, 27]: 14.3498% and 13.0687%; autophagy induction [3, 4]: -1.752%; autophagy induction [3, 5]: -3.995%; autophagy induction [3, 6]: 606.483%; autophagy induction [3, 7]: -3.291%; autophagy induction [3, 8]: -6.53%; autophagy induction [3, 9]: -3.506%; autophagy induction [3, 10]: -60.9405%; autophagy induction [3, 11]: -3.3303%; autophagy induction [3, 12]: -10.1026%; autophagy induction [3, 13]: -0.8464%; autophagy induction [3, 14]: -60.027%; autophagy induction [3, 15]: -3.2037%
